In US4130637A, “Anti-plaque agents” (Colgate-Palmolive Company, priority 1977, dated 1978):
Structures can show the parent of a compound that is named as a salt.

Legend:
[1] = tested on: T. ment.; assay: Minimum inhibitory concentration, test tube serial dilution test; format: cell-based, Trichophyton mentogrophytes; details: Trichophyton, mold
Procedure: (§1) The antimicrobial nature of the instant novel nontoxic compounds was shown by a standard test tube serial dilution test in which an appropriate number of test tubes of broth containing decreasing concentration of the test agent was innoculated with the test organism (0.1% in 95% ethyl alcohol). After a suitable period of incubation, the tubes were examined for the presence or absence of growth. The activity of the test agent was the lowest concentration which inhibited the growth of the organism and is expressed as the minimal inhibitory concentration in μgm/ml.

[2] = tested on: A. naeslundi; assay: as above; format: cell-based, Actinomycetis naeslundii; details: Actinomyces naeslundii, Gram Positive
Procedure: as §1

[3] = tested on: A. niger; assay: as above; format: cell-based; details: Aspergillus niger, mold
Procedure: as §1

[4] = tested on: Strep. sanguis; assay: as above; format: cell-based; details: Streptococcus, Gram Positive
Procedure: as §1

[5] = tested on: Strep. mutans; assay: as above; format: cell-based; details: Streptococcus mutans, Gram Positive
Procedure: as §1

[6] = tested on: E. Coli; assay: as above; format: cell-based; details: Escherichia coli, Gram Negative
Procedure: as §1

[7] = tested on: Ps. aeruginosa; assay: as above; format: cell-based; details: Pseudomonas aeruginosa, Gram Negative
Procedure: as §1

[8] = tested on: Staphylococcus aureus; assay: as above; format: cell-based; details: S. aureus, Gram Positive
Procedure: as §1

[9] = tested on: C. albicans; assay: as above; format: cell-based; details: Candida albicans, yeast
Procedure: as §1

[10] = In vivo plaque test on beagles (disclosing solution); design: species or system Beagle dogs; details: for PLAQUE Mean Score: Table II, score 1-4, 20 teeth per beagle, placebo 2.19, benzethonium chloride at .075%; for PLAQUE % Diff.: versus placebo, Signif. printed: 50/50 mixture N.S., 90% betaine 95%, Hibitane 95%, .075% benzethonium chloride 99%
Description: The animals used in these studies were registered Beagle dogs 6 to 8 months of age, weighing 8 to 10 kilos. […] They were anaesthesized (Na-Nembutal 25-30 mgs/kg) and received a complete dental prophylaxis. Disclosing solution (TRACE, Erythrosine, Lorvic St. Louis, Mo. U.S.A.) was used to insure the complete removal of soft and hard dental deposits. The dogs receive this diet exclusively -- ground Purina Dog Chow soaked in water for at least two hours to form a soft mush. In addition, each animal receives approximately one-half can of ground beef (no chunks). No hard substances were permitted for the duration of the study. The animals were treated once daily with the test solutions (approx. 6 to 9 ml.) using a gentle spray over all surfaces of dentition. Treatments continued at least five days per week for the duration of the experiment. Each animal was examined weekly for plaque, and stain. Photographs were taken by the examining investigator immediately after the prophylaxis and at every examination. Before starting with the plaque study, the groups were balanced with respect to plaque formation.

[11] = In vivo stain formation test on beagles (oral spray); design: species or system Beagle dogs
Description: This treatment was continued daily for 7 weeks. […] Score results range from 0 to 4:
1 stain present covering one-fourth of tooth surface;
2 stain present covering one-half of tooth surface;
3 stain present covering three-fourths of tooth surface;
4 stain present covering entire tooth surface.
The animals used in these studies were registered Beagle dogs 6 to 8 months of age, weighing 8 to 10 kilos. The animals were kept in good health and had not received any treatment for at least three weeks prior to the start of a study. They were anaesthesized (Na-Nembutal 25-30 mgs/kg) and received a complete dental prophylaxis. Disclosing solution (TRACE, Erythrosine, Lorvic St. Louis, Mo. U.S.A.) was used to insure the complete removal of soft and hard dental deposits. The dogs receive this diet exclusively -- ground Purina Dog Chow soaked in water for at least two hours to form a soft mush. In addition, each animal receives approximately one-half can of ground beef (no chunks). No hard substances were permitted for the duration of the study. The animals were treated once daily with the test solutions (approx. 6 to 9 ml.) using a gentle spray over all surfaces of dentition. Treatments continued at least five days per week for the duration of the experiment. Each animal was examined weekly for plaque, and stain. Photographs were taken by the examining investigator immediately after the prophylaxis and at every examination. Before starting with the plaque study, the groups were balanced with respect to plaque formation.

[12] = tested on: bacteria; details: Stedman et al. 1953; cited from earlier work
[13] = Staining of teeth / oral surfaces (general statements); format: in vivo; details: under use conditions
[14] = tested on: micro-organisms; details: reported by Swain et al. and Stedman et al.; cited from earlier work
[15] = tested on: micro-organisms; assay: Antimicrobial activity (general statements); format: cell-based
Procedure: as §1, with “μgm/ml. As shown in the following table of anitmicrobial data, the betaines of this invention are active against a variety of micro-organisms with maximum activity when the higher alkyl group has 14-16 carbons.” for “μgm/ml.”

Row | SMILES | MIC [1] [µg/mL] | MIC [2] [µg/mL] | MIC [3] [µg/mL] | MIC [4] [µg/mL] | MIC [5] [µg/mL] | MIC [6] [µg/mL] | MIC [7] [µg/mL] | MIC [8] [µg/mL] | MIC [9] [µg/mL] | other results
1 | CCCCCCCCCCCCCC[N+](C)(C)CCCCCCCCCCC(=O)O.[Br-] [C14 H29 [RN^+ (CH3)2 (CH2)10 COOH] Pr^-, tetradecyldimethyl(10-carboxydecyl)-ammonium bromide] | 3.12 | 0.39 | 25 | 1.56 | 1.56 | 100 | 50 | 0.39 | 3.12 | –
2 | CC(C)(C)CC(C)(C)c1ccc(OCCOCC[N+](C)(C)Cc2ccccc2)cc1 [Benzethonium Chloride, benzethonium chloride] | – | – | – | – | – | – | – | – | – | PLAQUE Mean Score [10]: 1.80; PLAQUE % Diff. [10]: -25.0%; Mean Stain Result ([11]; 0.1% aqueous solution, daily spray, 7 weeks, 10 dogs, score 0-4, deionized water 0.07): 0.59; increase in staining ([11]; 0.1% solution, 7 weeks, versus deionized water): 742%; No. of dogs w. Stain ([11]; Table II, dogs with stain/dogs tested, placebo 1/8, benzethonium chloride at .075%): 3/7; Mean Stain Score ([11]; Table II, score 0-4, placebo 0.388, benzethonium chloride at .075%): 0.53
3 | CCCCCCCCCCCCCCCC[N+](C)(C)CC(=O)[O-] [C16 H33 N^+ (CH3)2 CH2 COO^-] | – | – | – | – | – | – | – | – | – | bactericidal activity relative to related non-betaine [C16 H33 N(CH3)2 CH2 C6 H5 ]Cl [12]: less than one-tenth
4 | [H]/N=C(\N/C(=N/[H])NCCCCCCNC(=N)NC(=N)Nc1ccc(Cl)cc1)Nc1ccc(Cl)cc1 [Hibitane, Chlorhexidine] | – | – | – | – | – | – | – | – | – | staining / discoloration [13]: noticeable discolorations; PLAQUE Mean Score [10]: 1.32; PLAQUE % Diff. [10]: -39.7%; Mean Stain Score ([11]; dog, in vivo): 0.956; No. of dogs w. Stain ([11]; dog, in vivo): 8/8; degree of staining ([11]; dog, in vivo): significantly increased staining
5 | CCCCCCCCCCCCCCCC[N+](C)(C)CCCCCCCCCCC(=O)O.[Br-] [C16 H33 [RN^+ (CH3)2 (CH2)10 COOH] Pr^-, Hexadecyldimethyl(10-carboxydecyl)ammonium bromide] | 12.5 | 0.78 | 50 | 1.56 | 1.56 | 100 | 50 | 0.39 | 3.12 | antimicrobial properties [14]: reported to have antimicrobial properties
6 | CCCCCCCCCCCCCC[N+](C)(C)CCCCCCCCCCC(=O)[O-] [C14 H29 RN^+ CH3)2 (CH2)10 COOH, N-(10-Carboxydecyl)-N, N-dimethyltetradecanaminium hydroxide, inner salt] | 0.78 | 0.39 | 50 | 1.56 | 1.56 | 100 | 100 | 1.56 | 3.12 | –
7 | CCCCCCCCCCCC[N+](C)(C)CCCCCCCCCCC(=O)O [C12 H25 [RN^+ (CH3)2 (CH2)10 COOH] Pr^-] | 12.5 | 12.5 | 50 | 12.5 | 12.5 | 100 | 50 | 6.25 | 25 | –
8 | CCCCCCCCCCCCCCCC[N+](C)(C)CCCCCCCCCCC(=O)[O-] [C16 H33 RN^+ CH3)2 (CH2)10 COOH, N-(10-Carboxydecyl)-N,N-dimethylhexadecanaminium hydroxide, inner salt] | 1.56 | 0.78 | 100 | 0.78 | 1.56 | 100 | 100 | 1.56 | 3.12 | antimicrobial activity [15]: the activity is not diminished and is sufficient for the exhibition of useful antimicrobial and anti-plaque properties
